Measurements: paper PMC4129108, “The natural triterpene 3β,6β,16β-trihydroxy-lup-20(29)-ene obtained from the flowers of Combretum leprosum induces apoptosis in MCF-7 breast cancer cells” (BMC Complementary and Alternative Medicine, 2014)
Values after ≈ are worked out from the molar mass of the structure shown. “Also recorded” adds a separate entry of the source.

Key:
[1] = system: MRC5 (lung normal fibroblast); experiment: XTT cell viability assay, MRC5 normal fibroblasts; type: cell-based; conditions: Homo sapiens
Method: The human cell lines MCF-7 (breast adenocarcinoma), HepG2 (hepatoma), T24 (bladder cancer), CACO-2 (colorectal adenocarcinoma) and MRC5 (lung normal fibroblast) were obtained from the Rio de Janeiro Cell Bank (Rio de Janeiro, RJ, Brazil). The HCT116 cell (colorectal carcinoma), and HT29 cell (colorectal adenocarcinoma) were kindly provided by Dr. Annette K. Larsen (Institut National de la Santé et de la Recherche Médicale - INSERM, Paris, França). All cell lines except MCF-7 were grown in DMEM supplemented with 10% or 20% (for CACO-2) FBS, 100 units.mL^-1 penicillin and 100 μg.mL^-1 streptomycin at 37°C in a humidified atmosphere of 5% CO2. MCF-7 cells were maintained in RPMI-1640 supplemented with 20% FBS at the same conditions described above.
The cytotoxic potential of the TTHL was evaluated by the XTT assay in human tumor cell lines as well as in MRC5 normal fibroblasts. Cells (1 × 10^4 cells) were seeded on 96-well plates in growth medium and incubated overnight. Afterwards, TTHL (0.5, 1.0, 2.5, 5.0, and 10 μg/mL) was added to each well and incubated for 24, 48, 72, and 120 h. Mitoxantrone, a cytostatic anthracenedione that intercalates in DNA and increases the incidence of double-strand breaks by stabilizing the cleavable complex of topoisomerase II and DNA, was used as positive control. At the end of each treatment, cell viability was assessed according to the manufacturer’s instructions. Briefly, after discarding the medium, 1 mL of XTT labeling mixture was added to the cells and incubated for 2 h at 37°C. Absorbance was measured with a SpectraMax reader (Bio-Rad, USA) at a test wavelength of 492 nm (A492) and a reference wavelength of 690 nm (A690). The final result corresponds to A492-A690. The absorbance of negative control cells was set as 100% viability, and the values for treated cells were calculated as a percentage of the control.
The IC20, IC50, and IC80 values and their 95% confidence intervals (CI 95%) were obtained by nonlinear regression using GraphPad Prism v5 program (Intuitive Software for Science, San Diego, CA, USA). Selective index (SI) was calculated by IC50 in MRC5 cells/IC50 in tumoral cells. All experiments were independently repeated at least three times, with triplicate samples for each treatment. Results are expressed as means ± standard deviation (SD). Data were analyzed by one-way analysis of variance (ANOVA), and means were compared using Tukey test, with P ≤ 0.05 considered as statistically significant.

MCF-7 cells = experiment: Cell cycle distribution by flow cytometric analysis (PI); type: cell-based, human; conditions: MCF-7, 24 h
Method: (§1) Cells (2 × 10^5 cells/mL) were seeded on 6-well tissue culture plates, and grown for 1 day up to 70–80% confluence before treatment with the test substance. The TTHL was added to medium with FBS to obtain the different concentrations, and cells were treated at 37°C for 24 h in humidified atmosphere containing 5% CO2.
Cell cycle distribution determination analysis was performed as previously described. After treatment, cells were trypsinized, centrifuged and resuspended in ice-cold 70% ethanol, and left for 24 h at 4°C. Ethanol-fixed cells were centrifuged, washed with PBS and resuspended in buffer containing 0.2 mg/mL RNAse, 50 μg/mL PI and 0.1% Triton X-100, and incubated for 30 min at room temperature. Samples were analyzed on a FACS Calibur flow cytometer (Becton-Dikinson, San Fransisco, CA) using the CellQuest software. A total of 10,000 events were measured per sample. The data were analyzed to determine the percentage of cells at each phase of the cell cycle (sub-G1, G1, S and G2/M).

[2] = system: intracellular ROS in MCF-7 cells; experiment: ROS detection by flow cytometry (H2DCFDA); type: cell-based, human
Method: as §1
Levels of intracellular ROS were estimated following treatment with TTHL using 2′,7′-dichlorofluorescein diacetate (H2DCFDA, Sigma) as a fluorescent probe. Detection of oxidative stress was done by incubating the cells with 20 μM of H2DCFDA for 20 min at 37°C. Cells were then detached by trypsinization and washed twice with PBS. After filtration through cell strainer cap, cells were analyzed using a FACS Calibur flow cytometer with CellQuest software in accordance with Bass et al.. A total of 10,000 events were measured per sample. DCF fluorescence intensity was shown in arbitrary units.

[3] = system: S. cerevisiae haploid strain XV185-14c; experiment: Point and frameshift mutations and survival in XV185-14c haploid yeast; type: cell-based, Saccharomyces cerevisiae; conditions: for HIS1/10^7 survivors (locus-specific revertants) / HOM3/10^8 survivors (locus-specific revertants, frameshift) / LYS1/10^8 survivors (locus non-specific revertants) / Survival (%): XV185-14c, STAT cells treated in PBS; for Survival (%): 1 h 30°C
Method: Media, solutions and buffers were prepared according to Burke et al.. YPD medium (0.5% yeast extract, 2% peptone, 2% glucose) was used for routine growth. Synthetic medium SC (0.67% yeast nitrogen base, 0.1% ammonium sulfate, 2% glucose) supplemented with the appropriate amino acids and bases ([…]) was used for the detection of mutations.
Stationary phase (STAT) cultures were obtained by inoculation of a single colony into liquid YPD. We chose to work in the stationary phase of growth because this resembles most cells of multicellular organisms in important aspects: (i) most energy comes from mitochondrial respiration; (ii) the cells have left the active cell cycle and have entered the Go phase; and (iii) damage accumulates over time.
Cell cultures were grown as described above, exposed to TTHL in concentrations ranging from 10 to 500 μg/mL, and then incubated in PBS for 1 h at 30°C. Two alleles, his1-798 and lys1-1, were used to detect point mutagenesis. The suppressible ochre nonsense mutant allele lys1-1 can be reverted either by locus-specific sequence alteration (true reversion) or by a forward mutation in a suppressor gene. […] Survival was determined on SC medium (3–5 days, 30°C) and mutation induction (HIS, LYS or HOM revertants) on media lacking the appropriate amino acid (7–10 days, 30°C). Induction of reversion of point mutation to his1-798, ochre allele lys1-1, and frameshift mutation values were scored per number of surviving cells.

## C=C(C)[C@@H]1CC[C@@]2(C)[C@H]1[C@H]1CC[C@@H]3[C@@]4(C)CC[C@H](O)C(C)(C)[C@@H]4[C@H](O)C[C@@]3(C)[C@]1(C)C[C@@H]2O [TTHL, 3β,6β,16β-trihydroxy-lup-20(29)-ene]
[1]; MRC5, 24 h treatment
  IC50: 8.4 ± 0.28 µg/mL (≈ 18.3 µM)
[1]; MRC5, 48 h treatment
  IC50: 7.6 ± 0.14 µg/mL (≈ 16.6 µM)
[1]; MRC5, 72 h treatment
  IC50: 7.4 ± 0.15 µg/mL (≈ 16.1 µM)
[1]; MRC5, 120 h treatment
  IC50: 6.84 ± 0.1 µg/mL (≈ 14.9 µM)
MCF-7 cells; TTHL at IC20, IC50, IC80
  change in cell cycle progression: no significant change in cell cycle progression
MCF-7 cells; seen at IC50 and IC80, concentration-dependent
  sub-G1 population: significant increase in the sub-G1 population
[2]; MCF-7, 24 h treatment at IC50
  increase in intracellular ROS production: 49%
[2]; MCF-7, 24 h treatment at IC80
  increase in intracellular ROS production: 64%
[3]; 10 to 500 μg/mL, his1-798, lys1-1, hom3-10 loci
  mutagenicity in yeast strain XV185-14c (in words): induced mutagenicity; also recorded: only able to induce mutagenesis on the assessed loci at the highest concentration
[3]; 10 μg/mL
  HIS1/10^7 survivors (locus-specific revertants): 10.77 ± 4.40 /10^7 survivors
  HOM3/10^8 survivors (locus-specific revertants, frameshift): 6.11 ± 1.58 /10^8 survivors
  LYS1/10^8 survivors (locus non-specific revertants): 4.78 ± 0.63 /10^8 survivors
  Survival (%): 84.90%
[3]; 50 μg/mL
  HIS1/10^7 survivors (locus-specific revertants): 13.33 ± 1.10 /10^7 survivors
  HOM3/10^8 survivors (locus-specific revertants, frameshift): 8.80 ± 0.14 /10^8 survivors
  LYS1/10^8 survivors (locus non-specific revertants): 5.68 ± 2.22 /10^8 survivors
  Survival (%): 72.83%
[3]; 100 μg/mL
  HIS1/10^7 survivors (locus-specific revertants): 20.83 ± 1.80 /10^7 survivors
  HOM3/10^8 survivors (locus-specific revertants, frameshift): 8.49 ± 2.12 /10^8 survivors
  LYS1/10^8 survivors (locus non-specific revertants): 9.72 ± 0.55 /10^8 survivors
  Survival (%): 65.00%
[3]; 500 μg/mL
  HIS1/10^7 survivors (locus-specific revertants): 30.10 ± 0.21 /10^7 survivors
  HOM3/10^8 survivors (locus-specific revertants, frameshift): 11.15 ± 0.92 /10^8 survivors
  LYS1/10^8 survivors (locus non-specific revertants): 14.40 ± 3.40 /10^8 survivors
  Survival (%): 69.00%
